Values of other authors, collected in US20070025918A1, “Magnetic resonance imaging (MRI) agents: water soluble carbon-13 enriched fullerene and carbon nanotubes for use with dynamic nuclear polarization” (General Electric Company, priority 2005, published 2007).

What was measured:
[1] = THF and acetone

Substance: C60F60
- solubility in organic solvents [1]: soluble
- solubility in water: virtually insoluble
